# Earlier results, collected in article PMC10985535 (RSC Advances, 2024).
# System: CT-DNA
structure (smiles),measurement,value
CC[n+]1c(-c2ccccc2)c2cc(N)ccc2c2ccc(N)cc21.[Br-] [EtBr],Ksv of classical intercalator,10^7 M^−1
